Where two headings read alike, the source gives them in different places.
How the values were obtained:
[1] = target: human GABAA α1β2γ1 receptor (Homo sapiens (Human), UniProt P14867+Q8N1C3); assay: Radioligand binding assay, competition for [3H]RO7239181, γ1-containing GABAA subtypes
[2] = target: h-GABA-A α2β2γ1 (Homo sapiens (Human), UniProt P47869+Q8N1C3); assay: Two-electrode voltage clamp electrophysiology in Xenopus oocytes expressing GABAA receptors; type: cell-based; conditions: for Efficacy (GABA) %: % modulation of GABA EC20 = 100*(Fold increase−1), compound at about 30-fold its Ki α2β2γ1; for Fold increase h-GABA-A α2β2γ1 oocyte @ 30-fold Ki: Xenopus oocytes, GABA EC20, compound at about 30-fold its Ki α2β2γ1
In short: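 Xenopus oocytes injected with receptor subunit RNA and recorded 3–5 days later by two-electrode voltage clamp at −80 mV, room temperature, pH 7.4. GABA applied at EC20 for 1.5 min, with and without test compound. Efficacy = extremum of the point-by-point ratio of the two responses, expressed as % modulation of GABA EC20; ≥3 oocytes per concentration.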

[3] = Ki h-GABAA α1β2γ1, membranes of HEK293F cells, [3H]RO7239181 20-30 nM, Table 1

Structure (SMILES) | Ki ([1]; membranes of HEK293F cells, [3H]RO7239181 20-30 nM, Table 1, read-out: Ki h-GABAA α1β2γ1) | Efficacy (GABA) % [2] | Fold increase h-GABA-A α2β2γ1 oocyte @ 30-fold Ki [2] | Ki [1, 3] | Ki ([1]; Ki h-GABAA α1β2γ1, Table 3, reference compounds and examples)
C[C@@H]1N=C(c2c(F)cccc2F)c2c(sc3c2COCCO3)-n2nc(C(=O)NCC(C)(C)O)nc21 [Example 45, (7S)-9-(2,6-difluorophenyl)-N-(2-hydroxy-2-methyl-propyl)-7-methyl-13,16-dioxa-18-thia-2,3,5,8-tetrazatetracyclo[8.8.0.02,6.011,17]octadeca-1(10),3,5,8,11(17)-pentaene-4-carboxamide] | 103 nM | 101% | 2.01 | – | –
C[C@@H]1N=C(c2c(F)cccc2F)c2c(sc3c2COCCO3)-n2nc(C(=O)NC[C@@](C)(O)C(F)(F)F)nc21 [Example 46, (7S)-9-(2,6-difluorophenyl)-7-methyl-N-[(2R)-3,3,3-trifluoro-2-hydroxy-2-methyl-propyl]-13,16-dioxa-18-thia-2,3,5,8-tetrazatetracyclo[8.8.0.02,6.011,17]octadeca-1(10),3,5,8,11(17)-pentaene-4-carboxamide] | – | 84% | 1.84 | 60 nM | –
C[C@@H]1N=C(c2c(F)cccc2F)c2c(sc3c2COCCO3)-n2nc(C(=O)NC[C@](C)(O)C(F)(F)F)nc21 [Example 47, (7S)-9-(2,6-difluorophenyl)-7-methyl-N-[(2S)-3,3,3-trifluoro-2-hydroxy-2-methyl-propyl]-13,16-dioxa-18-thia-2,3,5,8-tetrazatetracyclo[8.8.0.02,6.011,17]octadeca-1(10),3,5,8,11(17)-pentaene-4-carboxamide] | – | 89% | 1.89 | 93.4 nM | –
Cc1nnc2n1-c1sc3c(c1C(c1c(F)cccc1F)=N[C@H]2C)COCCC3 [Example 52, (7S)-9-(2,6-difluorophenyl)-3,7-dimethyl-13-oxa-18-thia-2,4,5,8-tetrazatetracyclo[8.8.0.02,6.011,17]octadeca-1(10),3,5,8,11(17)-pentaene] | – | 170% | 2.70 | 75.3 nM | 75.3 nM
Cc1nnc2n1-c1sc3c(c1C(c1c(F)cccc1Cl)=N[C@H]2C)COCCC3 [Example 61, (7S)-9-(2-chloro-6-fluoro-phenyl)-3,7-dimethyl-13-oxa-18-thia-2,4,5,8-tetrazatetracyclo[8.8.0.02,6.011,17]octadeca-1(10),3,5,8,11(17)-pentaene] | – | 165% | 2.65 | 49.1 nM | –
